According to US10364263B2, “Cyclic phosphates and cyclic phosphoramidates for the treatment of neurologic disorders” (Retrophin, Inc., priority 2015, dated 2019):

Test system: PANK2 silenced human neuroblastoma IMR32 cells (PANK2−/−)
Assay: Coenzyme A assay in PANK2 silenced cells (LC-MS quantification of free CoA)
Type: cell-based
Conditions: compound added twice (24 h + 24 h), relative to 0.1% DMSO controls
Description: A human neuroblastoma IMR32 cell line (ATCC) with stably PANK2 silencing was obtained by lentiviral-delivered small hairpin RNA and cultured in MEM (Invitrogen) supplemented with 10% fetal bovine serum, 2 mM glutamine, 1% penicillin-streptomycin, 1 mM sodium pyruvate, 1 mM non essential amino acids and 1.5 g/l sodium bicarbonate.
For lentiviral shRNA expression, Human Emryonic Kidney HEK-293T cells (ATCC) were transfected with the appropriate pGFP-Lenti-shRNA constructs and packaging plasmids according to manufacturer's protocol (Origene Technologies, Inc.). Four different gene-specific shRNA expression vectors designed against multiple splice variants of PANK2 (Gene ID 80025) were used for transfection. A non-silencing shRNA construct (scrambled shRNA) and an empty vector expressing GFP alone were used as negative controls. The GFP tag subcloned into the lentiviral vectors was used to monitor the transfection efficiency.
IMR32 cells were plated on 150 cm dishes 48 h before transduction with lentiviral particles.
Three days after transduction medium was removed and replaced with fresh medium containing […] puromycin. Medium was replaced every 48 h. Levels of PANK2 expression on selected clones was assessed by Western Blot analysis.
To quantify CoA, PANK2^−/− IMR32 cells were plated on 12-well culture plates (Corning) at a density of 0.2×10^6 cells per well. After 72 h, compounds were freshly dissolved in DMSO and added to the culture medium to yield a final solvent concentration of 0.1% (v/v). Controls with medium containing 0.1% DMSO without test compounds were also included in each plate. Compound treated cells were incubated for 24 h at 37° C. Treatment was repeated after 24 h with newly dissolved compound and cells were further incubated at 37° C. for additional 24 h. Before LC-MS analysis of CoA levels, cells were harvested, counted, and collected in a 15 ml falcon tube and centrifuged at 200×g for 5 min at 4° C. Supernatant was removed and cell pellet was washed in 10 ml of ice-cold PBS. To further confirm that the numbers of cells in each sample were equivalent, an equal fraction of pellet was collected from each sample and subjected to protein determination analysis. After centrifugation and supernatant removal, the cell pellet was rapidly frozen in Liquid Nitrogen and stored at −80° C. until analysis.
Intracellular CoA levels were calculated considering an intracellular volume of 1 million cells=2 μl.
The 1×10^6 cellular pellet was extracted with 120 μl of aqueous 20% TFA. This solution was stirred for 2 min, sonicated in ultrasonic bath for 2 min, then stirred again for 1 min, and centrifuged for 15 min at 14000 g and at 4° C.
100 μL samples of supernatant were dried under N2 at 20° C. in the dark.
Samples were re-dissolved in 100 μl of 10 mM NH4^+ AcO^− buffer pH 5.1+IS (Dextrorphan 50 ng/ml), stirred for 2 min, sonicated in ultrasonic bath for 1 min, then stirred again for 1 min, and injected into LC-MS.
LC-MS/MS was performed using an Agilent HPLC (1100 Series, USA). The LC system was interfaced with an API-4000 Q-Trap triple quadrupole mass spectrometer (AB Sciex, Toronto, Canada) equipped with a TurbolonSpray ionization source operating in positive ion mode. Analyst™ software version 1.6 (AB Sciex, Toronto, Canada) was used for data acquisition and processing. CoA was separated using a Luna C18 column (2.0×50 mm; 5 μm particle size), column at 25° C. and flow rate of 0.2 ml/min. Injection volume was 15 μl. The mobile phases consisted of water containing 10 mM ammonium acetate pH 7 (mobile phase A) and MeCN-2-propanol 9:1 (mobile phase B). Elution was performed using a gradient starting at 2% B, holding at 2% B until 0.1 min, increasing to 98% B at 3.2 min, holding at 98% B until 4.5 min, returning to 2% B at 4.6 min and holding at 2% B until 7.5 min. Precursor ions and MRM transitions used were: CoA m/z 768.1→261.6 and 768.1→136.1. […]

| SMILES | PANK2−/− CoA (Fold Increase): fold increase in Coenzyme A (CoA) levels relative to controls |
| --- | --- |
| COC(=O)CCNC(=O)[C@@H]1O[P@@](=O)(OCOC(=O)c2scnc2C(C)(C)C)OCC1(C)C [2-192, (((2S,4R)-4-((3-methoxy-3-oxopropyl)carbamoyl)-5,5-dimethyl-2-oxido-1,3,2-dioxaphosphinan-2-yl)oxy)methyl 4-(tert-butyl)thiazole-5-carboxylate] | 2.52 Fold Increase |
| COC(=O)CCNC(=O)[C@@H]1O[P@](=O)(OCOC(=O)c2scnc2C)OCC1(C)C (single isomer, unassigned) [2-150] | 43.4 Fold Increase |
| COC(=O)CCNC(=O)[C@@H]1O[P@@](=O)(OCOC(=O)c2cc(C)nn2C)OCC1(C)C [2-182, (((2S,4R)-4-((3-methoxy-3-oxopropyl)carbamoyl)-5,5-dimethyl-2-oxido-1,3,2-dioxaphosphinan-2-yl)oxy)methyl 1,3-dimethyl-lH-pyrazole-5-carboxylate] | 24.98 Fold Increase |
| COC(=O)CCNC(=O)[C@@H]1O[P@](=O)(N2CCOCC2)OCC1(C)C [compound 135, methyl 3-((2S,4R)-5,5-dimethyl-2-morpholino-2-oxido-1,3,2-dioxaphosphinane-4-carboxamido)propanoate] | 1.3 Fold Increase |
| COC(=O)CCNC(=O)[C@@H]1OP(=O)(OCOC(=O)[C@@H]2COC(=O)N2C(=O)OC(C)(C)C)OCC1(C)C (stereo partly drawn) [2-189, 3-(tert-butyl) 4-((((4R)-4-((3-methoxy-3-oxopropyl)carbamoyl)-5,5-dimethyl-2-oxido-1,3,2-dioxaphosphinan-2-yl)oxy)methyl) (4S)-2-oxooxazolidine-3,4-dicarboxylate] | 3.86 Fold Increase |
| COC(=O)CCNC(=O)[C@@H]1O[P@@](=O)(N2CCOCC2)OCC1(C)C [compound 136, methyl 3-((2R,4R)-5,5-dimethyl-2-morpholino-2-oxido-1,3,2-dioxaphosphinane-4-carboxamido)propanoate] | 1.93 Fold Increase |
| COC(=O)CCNC(=O)[C@@H]1OP(=O)(OCOC(=O)N[C@@H](CSC(=O)C(C)(C)C)C(=O)OC)OCC1(C)C (stereo partly drawn) [2-148, methyl N-(((((4R)-4-((3-methoxy-3-oxopropyl)carbamoyl)-5,5-dimethyl-2-oxido-1,3,2-dioxaphosphinan-2-yl)oxy)methoxy)carbonyl)-S-pivaloyl-L-cysteinate] | 4.19 Fold Increase |
| COC(=O)CCNC(=O)[C@@H]1O[P@@](=O)(OCOC(=O)N[C@@H](CSC(=O)C(C)(C)C)C(=O)O)OCC1(C)C [2-200, N-(((((2S,4R)-4-((3-methoxy-3-oxopropyl)carbamoyl)-5,5-dimethyl-2-oxido-1,3,2-dioxaphosphinan-2-yl)oxy)methoxy)carbonyl)-S-pivaloyl-L-cysteine] | 1.84 Fold Increase |
| COC(=O)CCNC(=O)[C@@H]1O[P@@](=O)(OCOC(=O)c2sncc2C)OCC1(C)C [2-176, (((2S,4R)-4-((3-methoxy-3-oxopropyl)carbamoyl)-5,5-dimethyl-2-oxido-1,3,2-dioxaphosphinan-2-yl)oxy)methyl 4-methylisothiazole-5-carboxylate] | 53.24 Fold Increase |
| COC(=O)CCNC(=O)[C@@H]1O[P@@](=O)(N[C@@H](C)C(=O)OC)OCC1(C)C [1-52, methyl 3-((2R,4R)-2-(((S)-1-methoxy-1-oxopropan-2-yl)amino)-5,5-dimethyl-2-oxido-3,3,2-dioxaphosphinane-4-carboxamido)propanoate] | 2.09 Fold Increase |
| COC(=O)CCNC(=O)[C@@H]1OP(=O)(OCOC(=O)NCCOC(=O)[C@@H](NC(=O)OCc2ccccc2)C(C)C)OCC1(C)C (stereo partly drawn) [2-181, 2-((((((4R)-4-((3-methoxy-3-oxopropyl)carbamoyl)-5,5-dimethyl-2-oxido-1,3,2-dioxaphosphuian-2-yl)oxy)methoxy)carbonyl)amino) ethyl((benzyloxy)carbonyl)-L-valinate] | 49.59 Fold Increase |
| COC(=O)CCNC(=O)[C@@H]1O[P@@](=O)(OCOC(=O)c2scnc2C(C)C)OCC1(C)C [2-187, (((2S,4R)-4-((3-methoxy-3-oxopropyl)carbamoyl)-5,5-dimethyl-2-oxido-1,3,2-dioxaphosphinan-2-yl)oxy)methyl 4-isopropylthiazole-5-carboxylate] | 112.41 Fold Increase |
| COC(=O)CCNC(=O)[C@@H]1OP(=O)(N2CCN(C(C)=O)CC2)OCC1(C)C (stereo partly drawn) [compound 139, methyl 3-((4R)-2-(4-acetylpiperazin-1-yl)-5,5-dimethyl-2-oxido-1,3,2-dioxaphosphinane-4-carboxamido)propanoate] | 2.72 Fold Increase |
| COC(=O)CCNC(=O)[C@@H]1O[P@@](=O)(Oc2ccc([N+](=O)[O-])cc2)OCC1(C)C [2-121, methyl 3-((2S,4R)-5,5-dimethyl-2-(4-nitrophenoxy)-2-oxido-1,3,2-dioxaphosphinane-4-carboxamido)propanoate] | 1.59 Fold Increase |
| COC(=O)CCNC(=O)[C@@H]1O[P@](=O)(OCOC(=O)c2sncc2C)OCC1(C)C [2-177, (((2R,4R)-4-((3-methoxy-3-oxopropyl)carbamoyl)-5,5-dimethyl-2-oxido-1,3,2-dioxaphosphinan-2-yl)oxy)methyl 4-methylisothiazole-5-carboxylate] | 77.18 Fold Increase |
| COC(=O)CCNC(=O)[C@@H]1O[P@@](=O)(OCOC(=O)c2scnc2C)OCC1(C)C (single isomer, unassigned) [2-149] | 24.48 Fold Increase |
| COC(=O)CCNC(=O)[C@@H]1O[P@@](=O)(OCOC(=O)c2cnco2)OCC1(C)C (single isomer, unassigned) [2-151] | 17.56 Fold Increase |
| COC(=O)CCNC(=O)[C@@H]1OP(=O)(N[C@H](C(=O)OC)C2CCCCC2)OCC1(C)C (stereo partly drawn) [compound 12, methyl 3-((4R)-2-(((S)-1-cyclohexyl-2-methoxy-2-oxoethyl)amino)-5,5-dimethyl-2-oxido-1,3,2-dioxaphosphinane-4-carboxamido)propanoate] | 1.28 Fold Increase |
| COC(=O)CCNC(=O)[C@@H]1O[P@@](=O)(Oc2ccc(F)cc2)OCC1(C)C [2-178, methyl 3-((2S,4R)-2-(4-fluorophenoxy)-5,5-dimethyl-2-oxido-1,3,2-dioxaphosphinane-4-carboxamido)propanoate] | 2.3 Fold Increase |
| COC(=O)CCNC(=O)[C@@H]1O[P@@](=O)(OCn2ccnc2)OCC1(C)C [2-132, methyl 3-((2S,4R)-2-((1H-imidazol-1-yl)methoxy)-5,5-dimethyl-2-oxido-1,3,2-dioxaphosphinane-4-carboxamido)propanoate] | 0.93 Fold Increase |
